Laboratory results published in PMC9267059, “Selective Inhibition of Murine Cytomegalovirus Viral Gene Expression by the Antiviral Peptide TAT-I24” (International Journal of Molecular Sciences, 2022).

Assays:
double-stranded DNA [1] = settings: cited from earlier work
Description: To determine whether reduction of host-gene expression early after MCMV infection is related to the ability of the peptide to bind DNA, variants of TAT-I24 were generated with modifications of the TAT fusion partner (Figure 5A). The peptides were tested for their potency in inhibiting MCMV replication and their binding to DNA. […] Inhibition is independent of whether these are immediate-early, early or late genes, as they were all reduced to a similar extent, thereby excluding a specific effect of the peptide on a particular viral gene.

[2] = test system: MCMV viral gene expression; experiment: MCMV viral gene transcript levels by quantitative PCR relative to Gapdh; type: cell-based, murine cytomegalovirus; settings: for ie1 transcript levels, comparison of peptides: NIH/3T3, MCMV MOI 1, 2 h post-infection
Description: NIH/3T3 fibroblasts were infected with MCMV expressing luciferase at low MOI (MOI 1) with the aid of centrifugal enhancement. Infections were performed either in the absence or presence of 10 µM TAT-I24. Cells were lysed after 30 min or 2-, 4-, 8- and 24-h post-infection. Total RNA was isolated and treated with DNase I to remove viral DNA before synthesis of the cDNA. Levels of viral transcripts were then analyzed by quantitative PCR and normalized to mRNA levels of the glyceraldehyde-3-phosphate dehydrogenase (Gapdh) housekeeping gene.
NIH/3T3 cells were seeded at a density of 8 × 10^4 cells/well of a 24-well plate and allowed to attach overnight. On the next day, MCMV strain delm157-luc rep was adsorbed to cells (MOI 1) in the absence or presence of 10 µM TAT-I24 and centrifuged twice at 800× g for 15 min. Cells were then kept at 37 °C and lysed after the indicated time-points.

[3] = test system: host-cell transcripts in NIH/3T3 cells infected with MCMV; experiment: Host-cell transcript levels by quantitative PCR in MCMV-infected NIH/3T3 cells; type: cell-based; settings: for Ccl5 expression, comparison of peptides / Ccl7 expression, comparison of peptides / Ifit1 expression, comparison of peptides: MCMV MOI 1, 2 h post-infection, four independent experiments
double-stranded DNA [4] = experiment: DNA binding assay (fluorescence reduction of SYBR Gold-stained plasmid DNA); settings: three independent experiments performed in duplicates
Description: Binding of peptides to double-stranded DNA was determined by reduction of fluorescence from SYBR® Gold-stained plasmid DNA as described previously.

[5] = test system: mouse cytomegalovirus (CMV); settings: cited from earlier work
MCMV [6] = experiment: Crystal violet staining of MCMV-infected NIH/3T3 cells (cytopathic effects); type: cell-based, murine cytomegalovirus
Description: This strain was also used in the present investigation. […] However, with increasing concentrations of TAT-I24, the cytopathic effects caused by the virus infection were inhibited (Figure 1A). […] For all further investigations, 10 µM of TAT-I24 was therefore chosen to ensure efficient inhibition of MCMV infection.
NIH/3T3 cells were seeded at a density of 2 × 10^4 cells/well of a 96-well plate and allowed to attach overnight. On the next day, cells were treated with increasing concentrations of TAT-I24 and infected with MCMV strain delm157-luc rep with centrifugal enhancement twice at 800× g for 15 min. After 48 h, cells were fixed with 4% formaldehyde and stained with 1% crystal violet solution for 30 min at room temperature followed by three times washing with water. Microscopic examination was performed using a Live Cell Video Microscope (Leica Microsystems; Wetzlar, Germany).

NIH/3T3 cells [7] = experiment: Cell viability assay (Cell Titer Glo 2.0); type: cell-based; settings: 10 µM, 48 h, Cell Titer Glo 2.0 luminescence, eight replicates per group
Description: NIH/3T3 cells were grown in CO2-independent medium supplemented with 10% fetal calf serum, 2 mM glutamine and 1% antibiotic-antimycotic (ThermoFisher; Darmstadt, Germany) and cultivated in a humidified atmosphere at 37 °C and passaged once a week. For determination of cell viability, NIH/3T3 cells were seeded at a density of 2 × 10^4 cells/well of a 96-well plate and treated with vehicle (DMSO) or 10 µM TAT-I24. After 48 h, cells were lysed using Cell Titer Glo 2.0 reagent (Promega; Mannheim, Germany) and luminescence recorded using a GloMax Multi instrument (Promega; Mannheim, Germany).

MCMV viral DNA = MCMV viral DNA determined by ie1 PCR from RNA extracts; type: cell-based, murine cytomegalovirus
Description: The levels of viral DNA in the RNA extracts were also determined by PCR using the ie1 primer pair. In peptide-treated cells, the amount of viral DNA was about 60% compared to untreated cells. The amount of viral DNA declined in both settings between 2 and 8 h. […] This is in accordance with our earlier study using detection of the luciferase gene of MCMV strain delm157-luc rep.

BrdU-labelled MCMV DNA = experiment: Staining of BrdU-labelled MCMV DNA in NIH/3T3 cells; type: cell-based, murine cytomegalovirus
Description: When infection of cells is performed with MCMV labelled with bromodeoxyuridine (BrdU), a clear reduction in BrdU-labelled genomes in TAT-I24-treated cells can be observed. It was speculated that this was due to the interaction of the peptide with the viral DNA, leading to the prevention of BrdU-antibody binding. This was further supported by the observation that the incubation of cells with TAT-I24 after fixation and permeabilization led to an impairment of BrdU-staining. As additional support for this concept, BrdU-labelled MCMV was adsorbed to NIH/3T3 cells at 4 °C in the absence or presence of 10 µM TAT-I24. Cells were then washed with ice-cold medium followed by transfer to 37 °C and fixation and permeabilization 30 min post-cold release. In one setting, cells were additionally treated with pepsin for 20 min at 37 °C to degrade the peptide.
NIH/3T3 cells were seeded at a density of 4 × 10^4 cells/well into ibiTreat eight-well chambers (ibidi, Gräfelfing, Germany). Bromodeoxyuridine (BrdU)-labelled virus was adsorbed to cells in the absence or presence of 10 µM TAT-I24 as described before. Pepsin treatment was performed by incubation of cells after fixation, permeabilization and denaturation with Pepsin Reagent, Ready to Use, Antigen Retriever (Merck; Schnelldorf, Germany) for 20 min. Cells were then washed twice with 1xTBE followed by three washes with PBS. […]

NIH/3T3 cells [8] = settings: 20 µM; cited from earlier work
Source text: This strain was also used in the present investigation. […] However, with increasing concentrations of TAT-I24, the cytopathic effects caused by the virus infection were inhibited (Figure 1A).

SV40 polyomavirus = settings: cited from earlier work
Source text: (§1) We have described the novel antiviral peptide TAT-I24, a fusion of the 9-mer peptide I24 and the TAT peptide, which exerts broad-spectrum activity against several double-stranded DNA viruses. […] The antiv ...

herpes simplex virus = settings: cited from earlier work
Source text: as §1

[9] = test system: human cytomegalovirus (CMV); settings: cited from earlier work
Source text: as §1

[10] = test system: human immunodeficiency virus-1 (HIV-1); settings: cited from earlier work
Source text: as §1

[11] = test system: non-replicating baculovirus; settings: mammalian cells; cited from earlier work
Source text: as §1

[12] = test system: respiratory syncytial virus (RSV); settings: cited from earlier work
Source text: as §1

some adenoviruses = settings: cited from earlier work
Source text: as §1

vaccinia virus = settings: cited from earlier work
Source text: as §1

[13] = test system: host-cell transcripts in NIH/3T3 cells infected with UV-inactivated MCMV; experiment: Host-cell transcript levels in cells infected with UV-irradiated MCMV; settings: UV-inactivated MCMV MOI 2.5, 10 µM, 2 h post-infection, three independent experiments
MCMV [14] = experiment: Luciferase assay of MCMV replication (strain delm157-luc rep) in NIH/3T3 cells; type: cell-based, murine cytomegalovirus; settings: NIH/3T3 cells infected with MCMV, 72 h post-infection, at the concentrations tested, three independent experiments in duplicates
Description: NIH/3T3 cells were seeded at a density of 2 × 10^4 cells/well of a 96-well plate and allowed to attach overnight. On the next day, cells were treated with various concentrations of peptides, or cidofovir either alone or in combination with increasing concentrations of TAT-I24 and infected with MCMV strain delm157-luc rep with centrifugal enhancement twice at 800× g for 15 min. After 72 h, cells were lysed and luciferase measured using luciferase assay system (Promega; Mannheim, Germany) using a GloMax Multi instrument (Promega; Mannheim, Germany).
Curve fittings and statistics were calculated using GraphPad Prism 8 (GraphPad Software, San Diego, CA, USA). Bliss synergy scores were calculated using SynergyFinder 2.0 software (https://synergyfinder.fimm.fi (accessed on 25 June 2022)).

[15] = MOI comparison experiment, MOI 1 with 10 µM, 2 h post-infection, two independent experiments
[16] = MCMV MOI 1, 10 µM, 2 h post-infection
[17] = MCMV MOI 1, 10 µM, 4 h post-infection

CLAFYACFC [I24]
binding to DNA (double-stranded DNA [1]): also binds DNA

GRKKRRCLAFYACFC [TAT-M26, six N-terminal amino-acid residues of the TAT peptide fused to I24]
ie1 transcript levels, comparison of peptides ([2]; four independent experiments): significant inhibitory effect
Ccl5 expression, comparison of peptides [3]: significant reduction
Ccl7 expression, comparison of peptides [3]: significant reduction
Ifit1 expression, comparison of peptides [3]: significant reduction

GRKKRRQRRRPPQ [TAT, reference compound]
ie1 transcript levels, comparison of peptides ([2]; four independent experiments): partial reduction
DNA binding (fluorescence reduction of SYBR Gold-stained plasmid DNA) (double-stranded DNA [4]): partial fluorescence reduction
replication of mouse cytomegalovirus (MCMV) [5]: partial inhibitory effect

GRKKRRQRRRPPQCLAFYACFC [TAT-I24]
effect on cell attachment and morphology (MCMV [6]; 20 µM): some effect on cell attachment and morphology
cytopathic effects caused by the virus infection (MCMV [6]; MCMV MOI 1, 48 h post-infection, increasing concentrations of TAT-I24, crystal violet staining): inhibited
cytotoxic effect (cell viability assay) (NIH/3T3 cells [7]): does not exert any cytotoxic effect
reduction of ie1 transcript levels [2, 15]: 90%
expression of spliced late gene m129/131 ([2]; NIH/3T3, MCMV MOI 1, 10 µM): reduced
gene expression of M94 (late gene) ([2]; NIH/3T3, MCMV MOI 1, 10 µM): strongly inhibited
levels of m152 transcripts (early gene) ([2]; NIH/3T3, MCMV MOI 1, 10 µM): strongly reduced
m169 mRNA levels (early gene) ([2]; NIH/3T3, MCMV MOI 1, 10 µM): strongly reduced
reduction of ie1 transcript levels compared to untreated cells ([2]; NIH/3T3, MCMV MOI 1, 10 µM, 2 h post-infection, four independent experiments): more than 90%
ie1 transcript levels, comparison of peptides ([2]; four independent experiments): significant inhibitory effect
viral DNA (genome copies by ie1 PCR) (MCMV viral DNA; [15]): not reflected at the level of viral DNA
viral DNA after 24 h (MCMV viral DNA; NIH/3T3, MCMV MOI 1, 10 µM, 24 h post-infection): remained at background levels
amount of viral DNA compared to untreated cells (MCMV viral DNA; NIH/3T3, MCMV MOI 1, 10 µM, ie1 PCR, three independent experiments): about 60%
Ccl5 transcript levels ([3]; MCMV MOI 1, 10 µM): reduction
Gadd45a mRNA levels, untreated vs peptide-treated cells ([3]; MCMV MOI 1, 10 µM): no difference
Herpud1 transcript levels, untreated vs peptide-treated cells ([3]; MCMV MOI 1, 10 µM): no differences
Top2a transcript levels ([3]; MCMV MOI 1, 10 µM): no significant effect
Ccl7 transcript levels [3, 16]: reduced
Cxcl10 transcript levels [3, 16]: reduced
Ifit1 transcript levels [3, 16]: significantly reduced
Nfkbia transcript levels [3, 16]: reduced
Ccl7 transcript levels [3, 17]: started to increase
Cxcl10 transcript levels [3, 17]: started to increase
Nfkbia mRNA levels [3, 17]: comparable between untreated and peptide-treated cells
Ifit1 mRNA levels ([3]; MCMV MOI 1, 10 µM, after 4 h): also increased in the presence of the peptide
Ccl5 expression, comparison of peptides [3]: significant reduction
Ccl7 expression, comparison of peptides [3]: significant reduction
Ifit1 expression, comparison of peptides [3]: significant reduction
BrdU-labelled genomes seen in cells (BrdU-labelled MCMV DNA; 10 µM during adsorption at 4 °C, 30 min post-cold release, no pepsin): almost no BrdU-labelled genomes
BrdU-antibody staining after post-fixation pepsin treatment (BrdU-labelled MCMV DNA; 10 µM during adsorption, pepsin 20 min at 37 °C after fixation and permeabilization): clear appearance of a punctate pattern
cell viability (NIH/3T3 cells [8]): does not affect cell viability
binding to DNA (double-stranded DNA [1]): binds DNA with high affinity
replication of SV40 polyomavirus (SV40 polyomavirus): inhibit replication
replication of herpes simplex virus (herpes simplex virus): inhibit replication
replication of human cytomegalovirus [9]: inhibit replication
inhibition of HIV-1 [10]: Partial inhibition
reporter gene expression from a non-replicating baculovirus [11]: reduction of reporter gene expression
inhibition of RSV [12]: Partial inhibition
replication of some adenoviruses (some adenoviruses): inhibit replication
replication of vaccinia virus (vaccinia virus): inhibit replication
replication of mouse cytomegalovirus (MCMV) [5]: inhibit replication
Ccl5 transcript levels [13]: significantly reduced
Ccl7 transcript levels [13]: significantly reduced
Cxcl10 transcript levels [13]: significantly reduced

RRRCLAFYACFC [TAT-M25, three amino-terminal arginine residues fused to I24]
antiviral activity (luciferase reporter gene expression) (MCMV [14]): lack of antiviral activity
DNA binding (fluorescence reduction of SYBR Gold-stained plasmid DNA) (double-stranded DNA [4]): reduced DNA binding

RRRPPQCLAFYACFC [TAT-M24, six C-terminal residues of the TAT peptide fused to I24]
antiviral activity (luciferase reporter gene expression) (MCMV [14]): lack of antiviral activity
DNA binding (fluorescence reduction of SYBR Gold-stained plasmid DNA) (double-stranded DNA [4]): reduced DNA binding
